Species on record: Rattus norvegicus
Experiment: DrugMatrix - Regimen: Daily Repeat
Assay type: toxicity, organism-based, Sprague-Dawley
Design: regimen Daily Repeat, gender Male, age 6-8 weeks
Conditions: in vivo, po, route oral GAVAGE, vehicle .5 % CMC; for BASOPHIL / EOSINOPHIL / ERYTHROCYTE COUNT / HEMATOCRIT / HEMOGLOBIN / LEUKOCYTE COUNT / LYMPHOCYTE / MEAN CORPUSCULAR HEMOGLOBIN / MEAN CORPUSCULAR HEMOGLOBIN CONCENTRATION / MEAN CORPUSCULAR VOLUME / MONOCYTE / NEUTROPHIL / PLATELET COUNT: tissue Blood; for ALANINE AMINOTRANSFERASE / ALBUMIN / ALKALINE PHOSPHATASE / ASPARTATE AMINOTRANSFERASE / BLOOD UREA NITROGEN / CHLORIDE / CHOLESTEROL / CREATINE PHOSPHOKINASE / CREATININE / GLUCOSE / PHOSPHORUS / POTASSIUM / SODIUM / TOTAL BILIRUBIN / TOTAL PROTEIN: tissue Plasma
[1] = 0 mg/kg, 72 h, dose level Control, time 3 day
[2] = 0 mg/kg, 120 h, dose level Control, time 5 day
[3] = 25 mg/kg, 72 h, dose level Low, time 3 day
[4] = 25 mg/kg, 120 h, dose level Low, time 5 day

## N=C(N)NCCN1CCCCCCC1 [GUANETHIDINE]
[1]
  BASOPHIL: 0%
  EOSINOPHIL: 0%
  ERYTHROCYTE COUNT: 6.34 x10E6/uL
  HEMATOCRIT: 37.62%
  HEMOGLOBIN: 14.82 G/DL
  LEUKOCYTE COUNT: 11.18 x10E3/uL
  LYMPHOCYTE: 87.5%
  MEAN CORPUSCULAR HEMOGLOBIN: 23.48 pg
  MEAN CORPUSCULAR HEMOGLOBIN CONCENTRATION: 39.5 G/DL
  MEAN CORPUSCULAR VOLUME: 59.45 fL
  MONOCYTE: 1.67%
  NEUTROPHIL: 10.83%
  PLATELET COUNT: 1074.83 x10E3/uL
  ALANINE AMINOTRANSFERASE: 36.5 u/L
  ALBUMIN: 3.9 G/DL
  ALKALINE PHOSPHATASE: 370.17 u/L
  ASPARTATE AMINOTRANSFERASE: 63.17 u/L
  BLOOD UREA NITROGEN: 16.83 mg/dL
  CHLORIDE: 99.33 MEQ/L
  CHOLESTEROL: 64.33 mg/dL
  CREATINE PHOSPHOKINASE: 127 u/L
  CREATININE: 0.55 mg/dL
  GLUCOSE: 173.5 mg/dL
  PHOSPHORUS: 10.08 mg/dL
  POTASSIUM: 6.23 MEQ/L
  SODIUM: 143.5 MEQ/L
  TOTAL BILIRUBIN: 0.52 mg/dL
  TOTAL PROTEIN: 6.35 G/DL
[2]
  BASOPHIL: 0%
  EOSINOPHIL: 0.17%
  ERYTHROCYTE COUNT: 6.12 x10E6/uL
  HEMATOCRIT: 37.08%
  HEMOGLOBIN: 14.82 G/DL
  LEUKOCYTE COUNT: 11.87 x10E3/uL
  LYMPHOCYTE: 83.33%
  MEAN CORPUSCULAR HEMOGLOBIN: 24.25 pg
  MEAN CORPUSCULAR HEMOGLOBIN CONCENTRATION: 39.97 G/DL
  MEAN CORPUSCULAR VOLUME: 60.65 fL
  MONOCYTE: 1.5%
  NEUTROPHIL: 15%
  PLATELET COUNT: 1042.83 x10E3/uL
  ALANINE AMINOTRANSFERASE: 46 u/L
  ALBUMIN: 3.82 G/DL
  ALKALINE PHOSPHATASE: 369.5 u/L
  ASPARTATE AMINOTRANSFERASE: 65 u/L
  BLOOD UREA NITROGEN: 16.33 mg/dL
  CHLORIDE: 100.67 MEQ/L
  CHOLESTEROL: 57.17 mg/dL
  CREATINE PHOSPHOKINASE: 130 u/L
  CREATININE: 0.53 mg/dL
  GLUCOSE: 163.33 mg/dL
  PHOSPHORUS: 9.53 mg/dL
  POTASSIUM: 6.27 MEQ/L
  SODIUM: 144.83 MEQ/L
  TOTAL BILIRUBIN: 0.55 mg/dL
  TOTAL PROTEIN: 6.32 G/DL
[3]
  BASOPHIL: 0%
  EOSINOPHIL: 0%
  ERYTHROCYTE COUNT: 6 x10E6/uL
  HEMATOCRIT: 35.93%
  HEMOGLOBIN: 14.07 G/DL
  LEUKOCYTE COUNT: 11.77 x10E3/uL
  LYMPHOCYTE: 86.33%
  MEAN CORPUSCULAR HEMOGLOBIN: 23.5 pg
  MEAN CORPUSCULAR HEMOGLOBIN CONCENTRATION: 39.17 G/DL
  MEAN CORPUSCULAR VOLUME: 60.07 fL
  MONOCYTE: 0%
  NEUTROPHIL: 13.67%
  PLATELET COUNT: 1321.67 x10E3/uL
  ALANINE AMINOTRANSFERASE: 33.67 u/L
  ALBUMIN: 3.63 G/DL
  ALKALINE PHOSPHATASE: 372.67 u/L
  ASPARTATE AMINOTRANSFERASE: 57.67 u/L
  BLOOD UREA NITROGEN: 11.33 mg/dL
  CHLORIDE: 98.67 MEQ/L
  CHOLESTEROL: 63.67 mg/dL
  CREATINE PHOSPHOKINASE: 142.33 u/L
  CREATININE: 0.43 mg/dL
  GLUCOSE: 175.67 mg/dL
  PHOSPHORUS: 12.27 mg/dL
  POTASSIUM: 5.97 MEQ/L
  SODIUM: 143.67 MEQ/L
  TOTAL BILIRUBIN: 0.33 mg/dL
  TOTAL PROTEIN: 5.8 G/DL
[4]
  BASOPHIL: 0%
  EOSINOPHIL: 0.67%
  ERYTHROCYTE COUNT: 5.92 x10E6/uL
  HEMATOCRIT: 35.83%
  HEMOGLOBIN: 14.4 G/DL
  LEUKOCYTE COUNT: 11.83 x10E3/uL
  LYMPHOCYTE: 89.67%
  MEAN CORPUSCULAR HEMOGLOBIN: 24.33 pg
  MEAN CORPUSCULAR HEMOGLOBIN CONCENTRATION: 40.17 G/DL
  MEAN CORPUSCULAR VOLUME: 60.63 fL
  MONOCYTE: 1%
  NEUTROPHIL: 8.67%
  PLATELET COUNT: 1170.33 x10E3/uL
  ALANINE AMINOTRANSFERASE: 33 u/L
  ALBUMIN: 3.53 G/DL
  ALKALINE PHOSPHATASE: 229.67 u/L
  ASPARTATE AMINOTRANSFERASE: 54.67 u/L
  BLOOD UREA NITROGEN: 10.33 mg/dL
  CHLORIDE: 100.33 MEQ/L
  CHOLESTEROL: 57.67 mg/dL
  CREATINE PHOSPHOKINASE: 129.33 u/L
  CREATININE: 0.47 mg/dL
  GLUCOSE: 170.67 mg/dL
  PHOSPHORUS: 11.13 mg/dL
  POTASSIUM: 5.9 MEQ/L
  SODIUM: 145.33 MEQ/L
  TOTAL BILIRUBIN: 0.2 mg/dL
  TOTAL PROTEIN: 5.7 G/DL
